Data on one compound can be found in publication PMC5869712 (Scientific Reports, 2018).

The target in one data set is T1, CDK2 (Homo sapiens, UniProt P24941).
T1 construct: purchased Eurofins KinaseProfiler (Eurofins Pharma Discovery Services UK, Dundee); JAK3 also ChemPartner
The data set is described as follows: Eurofins Kinase Profiler panel. Type of data set: biochemical. The following applies: read-out: % inhibition (1μM), DMSO control=100%, lower=stronger.

Data set [1] concerns cytokine gene transcription in joint tissue of CIA mice. In words: Cytokine gene expression in joints of CIA mice by RT-PCR. Type of data set: in vivo, mouse.
Another data set has as its target T2, MEK1 (Homo sapiens, UniProt Q02750).
T2 construct: purchased Eurofins KinaseProfiler (Eurofins Pharma Discovery Services UK, Dundee); JAK3 also ChemPartner
The data set is described as follows: Eurofins Kinase Profiler panel. Type of data set: biochemical. The settings on record: read-out: % inhibition (1μM), DMSO control=100%, lower=stronger.

The target of the next data set is T3, GCK (Homo sapiens, UniProt Q12851).
T3 construct: purchased Eurofins Pharma Discovery Services UK Limited (Kinase Profiler screening platform)
T3 sequence (Q12851 whole entry): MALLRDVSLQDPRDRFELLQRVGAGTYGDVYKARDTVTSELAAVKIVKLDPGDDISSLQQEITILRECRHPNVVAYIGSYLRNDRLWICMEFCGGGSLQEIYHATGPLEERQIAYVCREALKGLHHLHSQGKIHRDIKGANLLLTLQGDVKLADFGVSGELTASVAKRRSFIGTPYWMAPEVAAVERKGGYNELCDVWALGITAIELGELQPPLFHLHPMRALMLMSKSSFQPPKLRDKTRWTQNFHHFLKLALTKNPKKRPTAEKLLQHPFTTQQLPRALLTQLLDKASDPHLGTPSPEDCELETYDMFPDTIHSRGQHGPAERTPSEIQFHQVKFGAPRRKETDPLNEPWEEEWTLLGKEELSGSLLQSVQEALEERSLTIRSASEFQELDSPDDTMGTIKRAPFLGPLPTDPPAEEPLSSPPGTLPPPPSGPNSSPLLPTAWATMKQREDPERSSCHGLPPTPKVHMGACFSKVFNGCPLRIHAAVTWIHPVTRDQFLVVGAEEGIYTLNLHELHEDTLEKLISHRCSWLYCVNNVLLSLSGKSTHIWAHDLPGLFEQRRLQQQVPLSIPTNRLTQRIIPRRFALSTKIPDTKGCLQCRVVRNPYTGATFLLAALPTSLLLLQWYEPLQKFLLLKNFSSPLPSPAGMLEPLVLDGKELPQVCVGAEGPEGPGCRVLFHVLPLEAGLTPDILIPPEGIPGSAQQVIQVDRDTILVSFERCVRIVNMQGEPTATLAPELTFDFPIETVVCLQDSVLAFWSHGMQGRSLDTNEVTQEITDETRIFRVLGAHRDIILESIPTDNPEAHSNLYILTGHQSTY
The data set is described as follows: Eurofins Kinase Profiler panel. Type of data set: biochemical. The following applies: read-out: % inhibition (1μM), DMSO control=100%, lower=stronger.

Data set [2] concerns GM-CSF-induced STAT5 phosphorylation (JAK2). The data set is described as follows: GM-CSF-induced pSTAT5 in total lymphocytes in hPBMCs, flow cytometry. Type of data set: cell-based. The following applies: Homo sapiens, Lymphocyte, hPBMC total lymphocytes, trigger GM-CSF, readout pSTAT5.
Another data set has as its target T4, IR (Homo sapiens, UniProt P06213).
T4 construct: purchased Eurofins KinaseProfiler (Eurofins Pharma Discovery Services UK, Dundee); JAK3 also ChemPartner
In words: Eurofins Kinase Profiler panel. It is filed as biochemical. The settings on record: read-out: % inhibition (1μM), DMSO control=100%, lower=stronger.

In another data set the target is T5, BMX (Homo sapiens, UniProt P51813).
T5 construct: EurofinsCerep (contract assay service)
The data set is described as follows: Cys-containing kinase family panel (EurofinsCerep). It is filed as biochemical.

The target in another data set is T6, Aurora-B (Homo sapiens, UniProt Q96GD4).
T6 construct: Eurofins Pharma Discovery Services UK Limited (Kinase Profiler service)
T6 sequence (Q96GD4 whole entry): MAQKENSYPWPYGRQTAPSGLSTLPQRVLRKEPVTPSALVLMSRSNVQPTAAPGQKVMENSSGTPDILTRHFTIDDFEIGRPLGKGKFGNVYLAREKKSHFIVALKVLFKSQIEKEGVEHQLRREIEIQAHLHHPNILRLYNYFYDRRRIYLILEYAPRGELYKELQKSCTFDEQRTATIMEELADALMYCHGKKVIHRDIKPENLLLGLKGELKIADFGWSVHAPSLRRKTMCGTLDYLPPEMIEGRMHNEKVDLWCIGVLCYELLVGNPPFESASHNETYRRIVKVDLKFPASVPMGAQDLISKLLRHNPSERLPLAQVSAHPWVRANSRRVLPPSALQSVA
The data set is described as follows: Eurofins Kinase Profiler panel. It is filed as biochemical.

The next data set deals with T7, GSK3β (Homo sapiens, UniProt P49841).
T7 construct: purchased Eurofins KinaseProfiler (Eurofins Pharma Discovery Services UK, Dundee); JAK3 also ChemPartner
T7 sequence (P49841 whole entry): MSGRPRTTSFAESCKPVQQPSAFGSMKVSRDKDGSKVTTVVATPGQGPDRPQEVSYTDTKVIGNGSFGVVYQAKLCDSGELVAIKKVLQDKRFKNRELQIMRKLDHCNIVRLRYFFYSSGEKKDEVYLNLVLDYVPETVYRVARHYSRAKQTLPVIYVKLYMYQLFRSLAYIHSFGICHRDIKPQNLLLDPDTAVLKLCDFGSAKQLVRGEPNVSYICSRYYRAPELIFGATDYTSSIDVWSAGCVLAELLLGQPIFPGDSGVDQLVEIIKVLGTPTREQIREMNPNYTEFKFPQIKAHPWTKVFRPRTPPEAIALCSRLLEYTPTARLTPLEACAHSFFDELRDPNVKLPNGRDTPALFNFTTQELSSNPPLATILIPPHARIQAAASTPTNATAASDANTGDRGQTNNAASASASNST
In words: Eurofins Kinase Profiler panel. Type of data set: biochemical. The settings on record: read-out: % inhibition (1μM), DMSO control=100%, lower=stronger.

In the next data set the test system is SD rats. In words: Acute toxicity in SD rats, oral. The settings on record: SD rats; oral 0.4 g/kg to 2.0 g/kg.
Data set [3] can be described thus: Acute toxicity in SD rats, oral. The settings on record: Sprague Dawley, rat, in vivo, po.
A further data set addresses T8, BLK (Homo sapiens, UniProt P51451).
T8 construct: EurofinsCerep (contract assay service)
In words: Cys-containing kinase family panel (EurofinsCerep). Type of data set: biochemical.

The target in a further data set is T9, MAPKAP-K2 (Homo sapiens, UniProt P49137).
T9 construct: purchased Eurofins KinaseProfiler (Eurofins Pharma Discovery Services UK, Dundee); JAK3 also ChemPartner
T9 sequence (P49137 whole entry): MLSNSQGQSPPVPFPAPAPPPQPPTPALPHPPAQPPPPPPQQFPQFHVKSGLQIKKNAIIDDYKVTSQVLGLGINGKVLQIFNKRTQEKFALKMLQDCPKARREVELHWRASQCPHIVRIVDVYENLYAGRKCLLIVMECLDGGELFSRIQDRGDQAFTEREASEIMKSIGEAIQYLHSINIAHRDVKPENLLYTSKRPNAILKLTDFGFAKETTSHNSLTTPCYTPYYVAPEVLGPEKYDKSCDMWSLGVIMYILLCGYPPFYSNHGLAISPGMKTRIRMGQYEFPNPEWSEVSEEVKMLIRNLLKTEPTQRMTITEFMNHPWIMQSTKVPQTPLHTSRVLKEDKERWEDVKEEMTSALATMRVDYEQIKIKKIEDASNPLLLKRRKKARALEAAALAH
The data set is described as follows: Eurofins Kinase Profiler panel. It is filed as biochemical. The settings on record: read-out: % inhibition (1μM), DMSO control=100%, lower=stronger.

The next data set concerns the target T10, Abl (Homo sapiens, UniProt P00519).
T10 construct: purchased Eurofins KinaseProfiler (Eurofins Pharma Discovery Services UK, Dundee); JAK3 also ChemPartner
The data set is described as follows: Eurofins Kinase Profiler panel. Type of data set: biochemical. The settings on record: read-out: % inhibition (1μM), DMSO control=100%, lower=stronger.

In another data set the target is T11, JAK3 (Homo sapiens, UniProt P52333).
T11 construct: ChemPartner (contract assay service)
T11 sequence (P52333 1-1124): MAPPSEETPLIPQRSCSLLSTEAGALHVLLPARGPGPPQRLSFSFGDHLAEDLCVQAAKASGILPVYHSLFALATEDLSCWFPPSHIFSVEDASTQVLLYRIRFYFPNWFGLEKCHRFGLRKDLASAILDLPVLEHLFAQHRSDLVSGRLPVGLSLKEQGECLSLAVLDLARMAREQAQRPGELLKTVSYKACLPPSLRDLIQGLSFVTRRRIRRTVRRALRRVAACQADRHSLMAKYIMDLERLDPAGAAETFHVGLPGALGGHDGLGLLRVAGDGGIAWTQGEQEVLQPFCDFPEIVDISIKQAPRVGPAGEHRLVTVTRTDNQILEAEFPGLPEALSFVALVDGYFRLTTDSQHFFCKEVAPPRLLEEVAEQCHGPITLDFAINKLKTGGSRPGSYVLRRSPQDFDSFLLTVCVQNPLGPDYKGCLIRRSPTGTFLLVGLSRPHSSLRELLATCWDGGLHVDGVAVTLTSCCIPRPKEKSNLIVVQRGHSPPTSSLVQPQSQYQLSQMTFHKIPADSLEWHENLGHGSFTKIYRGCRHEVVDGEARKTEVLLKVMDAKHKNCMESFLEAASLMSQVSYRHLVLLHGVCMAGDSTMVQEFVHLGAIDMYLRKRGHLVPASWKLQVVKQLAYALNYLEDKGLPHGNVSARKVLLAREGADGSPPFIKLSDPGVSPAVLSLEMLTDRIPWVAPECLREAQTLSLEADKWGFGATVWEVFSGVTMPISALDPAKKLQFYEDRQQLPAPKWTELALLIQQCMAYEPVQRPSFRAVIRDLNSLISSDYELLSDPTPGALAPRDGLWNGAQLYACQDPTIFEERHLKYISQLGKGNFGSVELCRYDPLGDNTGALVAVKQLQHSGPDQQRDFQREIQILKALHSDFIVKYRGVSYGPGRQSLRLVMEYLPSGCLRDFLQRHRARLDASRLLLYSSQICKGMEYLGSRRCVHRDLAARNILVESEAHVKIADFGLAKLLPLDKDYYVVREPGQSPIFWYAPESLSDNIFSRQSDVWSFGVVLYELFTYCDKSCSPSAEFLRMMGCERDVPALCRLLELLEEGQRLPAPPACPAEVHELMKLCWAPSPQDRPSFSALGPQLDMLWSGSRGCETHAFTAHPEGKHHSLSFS
In words: Eurofins Kinase Profiler panel. It is filed as biochemical. The settings on record: read-out: % inhibition (1μM), DMSO control=100%, lower=stronger, text: residual kinase activity.

The next data set concerns the target T12, ERBB4 (Homo sapiens, UniProt Q15303).
T12 construct: EurofinsCerep (contract assay service)
In words: Cys-containing kinase family panel (EurofinsCerep). It is filed as biochemical.

Another data set concerns the target T13, BTK (Homo sapiens, UniProt Q06187).
T13 construct: EurofinsCerep (contract assay service)
The data set is described as follows: Cys-containing kinase family panel (EurofinsCerep). Type of data set: biochemical.

T13 sequence (Q06187 whole entry): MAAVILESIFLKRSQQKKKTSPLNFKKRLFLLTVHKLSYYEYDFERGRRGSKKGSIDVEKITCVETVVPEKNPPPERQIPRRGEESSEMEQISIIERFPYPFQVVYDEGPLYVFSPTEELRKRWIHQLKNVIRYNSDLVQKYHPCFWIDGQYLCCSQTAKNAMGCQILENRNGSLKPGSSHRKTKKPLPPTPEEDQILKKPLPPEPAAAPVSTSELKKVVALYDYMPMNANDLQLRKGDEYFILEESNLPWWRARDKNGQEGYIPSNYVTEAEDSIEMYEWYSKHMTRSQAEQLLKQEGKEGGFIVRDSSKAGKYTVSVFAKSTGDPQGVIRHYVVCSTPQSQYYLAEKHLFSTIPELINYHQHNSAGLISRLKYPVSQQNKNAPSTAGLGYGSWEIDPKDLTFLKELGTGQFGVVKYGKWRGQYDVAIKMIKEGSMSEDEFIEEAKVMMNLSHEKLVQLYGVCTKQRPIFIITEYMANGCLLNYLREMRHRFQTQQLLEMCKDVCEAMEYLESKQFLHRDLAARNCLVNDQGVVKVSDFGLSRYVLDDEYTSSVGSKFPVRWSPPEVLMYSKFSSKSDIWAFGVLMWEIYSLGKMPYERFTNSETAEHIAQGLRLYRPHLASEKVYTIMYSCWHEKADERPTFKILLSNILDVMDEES
T2 sequence (Q02750 whole entry): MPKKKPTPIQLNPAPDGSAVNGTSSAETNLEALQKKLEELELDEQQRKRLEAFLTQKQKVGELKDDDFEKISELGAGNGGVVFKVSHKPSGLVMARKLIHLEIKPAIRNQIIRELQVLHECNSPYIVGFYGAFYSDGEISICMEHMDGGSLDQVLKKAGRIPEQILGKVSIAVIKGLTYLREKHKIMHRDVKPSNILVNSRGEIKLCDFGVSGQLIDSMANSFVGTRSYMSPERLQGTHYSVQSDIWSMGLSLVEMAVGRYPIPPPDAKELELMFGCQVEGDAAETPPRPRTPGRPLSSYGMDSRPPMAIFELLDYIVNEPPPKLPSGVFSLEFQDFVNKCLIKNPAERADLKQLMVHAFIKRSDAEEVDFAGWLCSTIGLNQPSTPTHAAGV
T12 sequence (Q15303 26-1308): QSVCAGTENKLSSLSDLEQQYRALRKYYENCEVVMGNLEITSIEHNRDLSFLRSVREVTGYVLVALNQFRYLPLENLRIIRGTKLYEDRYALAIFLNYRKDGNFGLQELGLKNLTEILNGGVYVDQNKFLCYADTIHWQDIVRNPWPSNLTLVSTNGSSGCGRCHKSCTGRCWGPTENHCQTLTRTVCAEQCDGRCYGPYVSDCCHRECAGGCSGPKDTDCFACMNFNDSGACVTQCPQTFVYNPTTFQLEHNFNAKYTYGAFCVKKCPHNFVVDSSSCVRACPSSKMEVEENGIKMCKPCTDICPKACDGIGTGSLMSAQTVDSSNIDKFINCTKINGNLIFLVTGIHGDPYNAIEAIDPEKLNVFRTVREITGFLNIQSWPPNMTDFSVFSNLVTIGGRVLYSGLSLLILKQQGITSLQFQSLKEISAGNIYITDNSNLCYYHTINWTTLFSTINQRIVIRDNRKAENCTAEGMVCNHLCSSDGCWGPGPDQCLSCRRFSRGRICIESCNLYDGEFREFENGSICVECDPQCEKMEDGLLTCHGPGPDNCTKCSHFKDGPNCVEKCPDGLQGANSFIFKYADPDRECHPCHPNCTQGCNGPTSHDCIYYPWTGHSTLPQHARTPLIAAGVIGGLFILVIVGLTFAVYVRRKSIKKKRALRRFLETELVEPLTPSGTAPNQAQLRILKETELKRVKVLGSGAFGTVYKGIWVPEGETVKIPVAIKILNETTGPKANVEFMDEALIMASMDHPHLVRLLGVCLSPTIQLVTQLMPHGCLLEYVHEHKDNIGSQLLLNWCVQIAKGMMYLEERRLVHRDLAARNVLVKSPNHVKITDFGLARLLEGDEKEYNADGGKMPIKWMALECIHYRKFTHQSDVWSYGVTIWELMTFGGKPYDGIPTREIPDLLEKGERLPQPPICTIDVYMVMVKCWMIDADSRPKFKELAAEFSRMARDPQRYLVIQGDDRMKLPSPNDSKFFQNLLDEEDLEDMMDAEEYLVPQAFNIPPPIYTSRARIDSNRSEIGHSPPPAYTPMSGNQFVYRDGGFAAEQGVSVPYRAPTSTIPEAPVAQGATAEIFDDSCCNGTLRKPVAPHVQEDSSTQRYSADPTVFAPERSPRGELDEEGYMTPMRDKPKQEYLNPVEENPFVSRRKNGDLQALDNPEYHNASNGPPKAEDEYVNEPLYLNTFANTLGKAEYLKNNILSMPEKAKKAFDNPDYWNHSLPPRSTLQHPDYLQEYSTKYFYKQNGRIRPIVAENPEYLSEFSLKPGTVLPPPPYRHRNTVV
T8 sequence (P51451 whole entry): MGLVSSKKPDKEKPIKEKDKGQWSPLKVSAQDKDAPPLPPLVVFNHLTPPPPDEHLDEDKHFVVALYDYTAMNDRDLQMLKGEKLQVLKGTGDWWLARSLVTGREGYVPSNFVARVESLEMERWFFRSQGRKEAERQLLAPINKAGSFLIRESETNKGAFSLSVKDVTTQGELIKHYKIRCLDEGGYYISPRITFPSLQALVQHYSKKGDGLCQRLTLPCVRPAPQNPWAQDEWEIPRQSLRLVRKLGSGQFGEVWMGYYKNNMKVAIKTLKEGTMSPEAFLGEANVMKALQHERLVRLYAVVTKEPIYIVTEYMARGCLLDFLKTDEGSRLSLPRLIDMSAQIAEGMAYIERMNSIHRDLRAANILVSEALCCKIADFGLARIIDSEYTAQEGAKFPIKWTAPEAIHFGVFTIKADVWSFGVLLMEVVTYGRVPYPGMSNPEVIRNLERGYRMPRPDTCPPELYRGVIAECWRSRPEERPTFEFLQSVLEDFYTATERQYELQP

As for `C=CC(=O)N[C@@H]1CCCN(c2ncnc3[nH]ccc23)C1` [RB1], the activity at 1 µM on CDK2 stood at 93%; at MEK1, 92%; on GCK, 80%; on IR, 114%; at Aurora-B (read-out: % inhibition (1μM), 1 µM, DMSO control=100%, lower=stronger), 12%; at GSK3β it was 114%. For the same compound, the activity at 1 µM at MAPKAP-K2 is 97%; on Abl, 112%; at JAK3, 0.9%. For the same compound, the IL-10 expression entry in data set [1] is recorded as “significantly increased its expression”. For the same compound, the “gene transcription levels of IL-1, IL-2 and IL-6” value in [1] is given as “dose-dependently reduced”. The “TNF-α and IFN-γ gene transcription levels” value in data set [1] (p < 0.01) is given as “significantly reduced”. The concentration for half-maximal inhibition (IC50) is more than 10 µM in data set [2] and more than 0.8 µM on Aurora-B (estimated). Moreover, the inhibition at 1 µM against BMX was 4%; against BLK, 8.35%; on ERBB4 it was -3.5%; against BTK it was -0.95%. For the same compound, the “adverse effects on body weight, behaviour or appetite” value in the data set with SD rats is recorded as “no observable adverse effects”. Besides, the LD50 in data set [3] was more than 2000 mg/kg.
